Patent US20170094996A1, “PROCESS FOR REBAUDIOSIDE D” (EPC (BEIJING) NATURAL PRODUCTS CO., LTD., priority 2009, published 2017)

How the values were obtained:
[1] = Sensorical analysis of 3 samples steviol-glycosides, trained panel of 6 test persons; type: in vivo, human; details: 200 ppm solutions in water, 100 ml, blinded
Method: Trained panel of 6 test persons.
Samples were prepared as 200 ppm solutions in water (same temperature).
Each test person received 3 equal glasses with 100 ml of prepared sample. The glasses were denoted with random 3-digit numbers.
The question asked was: “Can you taste a difference between the samples and if so please describe the difference in plain text”.
After the tasting period, the panel exchanged the individual opinions and came to following conclusion (the nature of sample was kept hidden until the conclusion was reached): […]

[2] = compared with stevioside; Phytochemistry 68, 2007, 1855-1863; cited from earlier work

## C=C1C[C@@]23CC[C@H]4[C@@](C)(CCC[C@@]4(C)C(=O)O[C@@H]4O[C@H](CO)[C@@H](O)[C@H](O)[C@H]4O)[C@@H]2CC[C@]1(O[C@@H]1O[C@H](CO)[C@@H](O)[C@H](O[C@@H]2O[C@H](CO)[C@@H](O)[C@H](O)[C@H]2O)[C@H]1O[C@@H]1O[C@H](CO)[C@@H](O)[C@H](O)[C@H]1O)C3 [Rebaudioside A]
[1]
  bitter after taste (panel conclusion): slight bitter after taste
  sweetness compared with the other samples (panel conclusion): slightly less sweet than the 2 other samples
[2]
  taste quality: better than stevioside
